Experimental data from publication PMC7738871, “Covalent modification of Keap1 at Cys77 and Cys434 by pubescenoside a suppresses oxidative stress-induced NLRP3 inflammasome activation in myocardial ischemia-reperfusion injury” (Theranostics, 2021).

Columns and labels:
OGD/R-induced H9c2 cells = test: OGD/R-induced injury, MTT viability, H9c2; format: cell-based, rat; settings: 100 μM, compared with PBA
Method: For OGD/R treatment, H9c2 cells were washed twice with phosphate buffered saline (PBS). The medium was changed to glucose and serum free DMEM, and H9c2 cells were incubated in an incubator with 95% N2 and 5% CO2 at 37 °C. After 6 h, the medium was replaced with DMEM containing 10% FBS and 1% PS. Then H9c2 cells were returned to a normal incubator with 5% CO2 balanced with air at 37 °C for the indicated time.
Cell viability was determined by MTT assays. PBA was prepared to a stock solution dissolved in dimethyl sulfoxide (DMSO). RAW264.7, H9c2 cells, primary mouse cardiomyocytes were treated with different doses of PBA, and DMSO only as control for 48 h for the toxicity. In addition, H9c2 cells or primary mouse cardiomyocytes were treated with the indicated doses of PBA, diazoxide as positive control, DMSO only as control, then cultured with or without OGD/R treatment. At the end of the experiments, MTT was added into each well at the concentration of 0.5 mg/ml, and incubated at 37 °C for 4 h. After removal of the supernatant, 150 μL of DMSO was added to solubilize the formazan products. And the solution was measured at the absorbance of 490 nm by a spectrophotometer (Thermo Fisher Scientific, MA, USA). The results of the MTT assay in all groups were normalized to the control group with DMSO only treatment.

[1] = tested on: Keap1-dependent Nrf2 ubiquitination; test: Keap1-dependent Nrf2 ubiquitination in 293T cells; format: cell-based, human; settings: WT Keap1, 30 μM PBA 20 h, 5 μM MG132 4 h
Method: Alkylation of the BTB domain of Keap1 by covalent modifiers contributes to the disruption of the Keap1-Cul3 interactions, leading to Nrf2 activation. Next, we investigated the effect of PBA on the modulation of Nrf2 ubiquitination as Nrf2 stability is controlled by ubiquitin-mediated proteasomal degradation. First, 3X Flag-Keap1, Myc-Nrf2 and Ub plasmids were transfected into 293T cells and then, the cells were treated with 30 μM PBA for 20 h and 5 μM MG132 for another 4 h. Cell lysates were pulled down using anti-Myc beads, and immunopurified Nrf2 was examined for the occurrence of Ub by western blotting. […] As shown in Figure 6E-F, PBA could disrupt the interaction of Keap1 and Cul3 in WT-Keap1 cells, while the disruption was blocked in the Cys77S and Cys434-Keap1 mutant cells.
Figure 6 PBA suppresses Keap1-mediated ubiquitination of Nrf2 by disrupting the interaction between Cul3 and Keap1. (A and B) PBA suppressed Nrf2 ubiquitination in a Keap1-Cys77 and C434-dependent manner. First, 293T cells were transfected with WT-Keap1 or C77S and C434S-Keap1, Myc-Nrf2, and Ub plasmids for 24 h and treated with 30 μM PBA. The cell lysates were immunoprecipitated using anti-Myc beads, and the ubiquitination level was evaluated using the anti-Ub antibody. (C and D) PBA induced the dissociation of the Nrf2-Keap1 complex. Then, 293T cells were cotransfected with WT-Keap1 and Flag-Nrf2 plasmids for 24 h and treated with 30 μM PBA for 12 h. The cell lysates were immunoprecipitated with the anti-Flag antibody, and the level of Nrf2 was assessed using the anti-Nrf2 antibody. (E and F) PBA disrupted the interaction between Cul3 and Keap1. […] The cell lysates were immunoprecipitated with the anti-Flag antibody, and the level of Cul3 was measured using the anti-Cul3 antibody. #p < 0.05, ##p < 0.01, ###p < 0.001, the control vs DMSO; *p < 0.05,**p < 0.01, ***p < 0.001, PBA or tBHQ vs DMSO. […] Cell viability was measured by MTT assays. #p < 0.05, ###p < 0.001, the control vs OGD/R; **p < 0.01, ***p < 0.001, OGD/R+PBA vs OGD/R.

[2] = tested on: T1, interaction between Keap1 and Nrf2; test: Co-IP of Keap1 and Nrf2 in 293T cells; format: cell-based, human; settings: WT-Keap1, 30 μM PBA
T1 construct: expressed in transfected cells; host or cells: 293T
Method: Figure 6 PBA suppresses Keap1-mediated ubiquitination of Nrf2 by disrupting the interaction between Cul3 and Keap1. (A and B) PBA suppressed Nrf2 ubiquitination in a Keap1-Cys77 and C434-dependent manner. First, 293T cells were transfected with WT-Keap1 or C77S and C434S-Keap1, Myc-Nrf2, and Ub plasmids for 24 h and treated with 30 μM PBA. The cell lysates were immunoprecipitated using anti-Myc beads, and the ubiquitination level was evaluated using the anti-Ub antibody. (C and D) PBA induced the dissociation of the Nrf2-Keap1 complex. Then, 293T cells were cotransfected with WT-Keap1 and Flag-Nrf2 plasmids for 24 h and treated with 30 μM PBA for 12 h. The cell lysates were immunoprecipitated with the anti-Flag antibody, and the level of Nrf2 was assessed using the anti-Nrf2 antibody. (E and F) PBA disrupted the interaction between Cul3 and Keap1. The 293T cells were transfected with the WT-Keap1 or C77S-C434S-Keap1 plasmids for 24 h and treated with 30 μM PBA for 12 h. The cell lysates were immunoprecipitated with the anti-Flag antibody, and the level of Cul3 was measured using the anti-Cul3 antibody. #p < 0.05, ##p < 0.01, ###p < 0.001, the control vs DMSO; *p < 0.05,**p < 0.01, ***p < 0.001, PBA or tBHQ vs DMSO. […] Primary mouse cardiomyocytes were transfected with mouse WT-Keap1 or C77S and C434S-Keap1 mutant vectors. After 24 h, the cells were treated with the indicated doses of PBA and subjected to OGD conditions as described in the Method section for 3 h and under normal conditions for another 18 h. Cell viability was measured by MTT assays. #p < 0.05, ###p < 0.001, the control vs OGD/R; **p < 0.01, ***p < 0.001, OGD/R+PBA vs OGD/R.
To investigate the effect of PBA on the interaction of Keap1 and Nrf2, we transfected 293T cells with Flag-Keap1 and Myc-Nrf2 plasmids, and treated them with 30 μM PBA for 24 h. The protein expression of Nrf2 was measured by western blotting analysis followed by immunoprecipitation with Flag beads.

| SMILES | protective effect against OGD/R induced injury (positive control) (OGD/R-induced H9c2 cells) | Keap1-dependent Nrf2 ubiquitination [1] | interaction between Keap1 and Nrf2 (Co-IP) [2] |
| --- | --- | --- | --- |
| CC1=NS(=O)(=O)c2cc(Cl)ccc2N1 [diazoxide, reference compound] | protective effect of PBA seemed equal to that of 100 μM diazoxide | – | – |
| CC(C)(C)c1cc(O)ccc1O [tBHQ, reference compound] | – | significantly suppressed | did not affect it |
